{"source": "paper PMC8621208", "about": "“Antiseptic 9-Meric Peptide with Potency against Carbapenem-Resistant Acinetobacter baumannii Infection” (International Journal of Molecular Sciences, 2021)", "key": {"[1]": {"test_system": "CREC E2", "test": "MIC, broth dilution", "type": "cell-based, carbapenem-resistant E. coli", "conditions": "read-out: Minimal Inhibitory Concentration (MIC)", "from_the_text": "(§1) Escherichia coli KCTC 1682 was obtained from the Korean Collection for Type Cultures (KCTC) (Jeongeup-si, Korea), Acinetobacter baumannii KCCM 40203, Pseudomonas aeruginosa KCCM 11328 from the Korea Culture Center of Microorganisms (KCCM) (Seoul, Korea). Klebsiella pneumoniae NCCP 16054 were obtained from the National Culture Collection for Pathogens (NCCP) (Osong, Korea). Additionally, two carbapenem-resistant E. coli (CREC E1 and E2), 11 carbapenem-resistant A. baumannii (CRAB C0–C10) and two carbapenem-resistant K. pneumoniae (CRKP K1 and K2) were isolated from the patients, who presented symptoms and signs of infection at Korea University Anam Hospital (Seoul, Korea) (IRB registration no. 2020AN0157, 4 March 2021). CRAB C0–C10 have the OXA-23 gene with carbapenem-resistance.\n(§2) The minimum inhibitory concentrations (MIC) were determined using broth dilution method. Briefly, all the mentioned bacterial strains were grown overnight at 37 °C by Muller–Hinton (MH) media. […] After 16 h incubation, the bacterial growth was read at 600 nm using a SpectraMAX microplate reader (Molecular Devices, San Jose, CA, USA)."}, "[2]": {"test_system": "CREC E1", "test": "MIC, broth dilution", "type": "cell-based, carbapenem-resistant E. coli", "conditions": "read-out: Minimal Inhibitory Concentration (MIC)", "from_the_text": "as §1, §2"}, "[3]": {"test_system": "CRAB C0", "type": "cell-based, carbapenem-resistant A. baumannii", "conditions": "peptide pre-incubated 6 h at 37 °C", "protocol": "(§3) All the peptides at their MICs were pre-incubated with proteolytic enzymes such as trypsin and α-chymotrypsin (10,000:1; peptide: enzyme ratio) for 6 h at 37 °C. Then, 100 μL of peptide-protease cocktail was added to the 100 µL bacterial suspension (E. coli, A. baumannii and CRAB C0, 2 × 10^5 CFU/mL) and further incubated for 16 h at 37 °C. Bacterial suspension without peptide and protease served as negative control. The analysis was repeated at three times using independent experiments, and the degree of bacterial growth was measured at 600 nm using a microplate reader."}, "[4]": {"test_system": "E. coli", "test": "MIC, broth dilution", "type": "cell-based, Escherichia coli KCTC 1682", "conditions": "E. coli; 16 h, MH media; read-out: Minimal Inhibitory Concentration (MIC)", "from_the_text": "as §1, §2"}, "[5]": {"test_system": "RAW 264.7 murine macrophage cells", "test": "Cytotoxicity, WST-8 assay", "type": "cell-based, mouse", "conditions": "100 μM, 24 h", "protocol": "Figure 6 In vitro cytotoxicity of Pro9-3 and their analogues. (A) Dose-response curve represent the hemolytic activity of peptides against sheep red blood cell (sRBC). Concentration-dependent (0–100 μM) toxic effects induced by peptides on (B) RAW 264.7 murine macrophage cells and (C) human kidney (HK)-2 cells for 24 h. Melittin was used as a control. Statistical analysis was performed using two-way analysis of variance (ANOVA) with Dunnett’s comparison test. Values are expressed as mean ± SEM of three independent experiments. * p < 0.05, ** p < 0.01, *** p < 0.001, and ns, non-significant compared with the control.\nRAW 264.7 mouse macrophage cells and Human kidney (HK)-2 cells were obtained from Korean cell line bank (Seoul, Korea) and the cells were maintained in DMEM culture media (Thermo Fischer Scientific Inc., Waltham, MA, USA) supplemented with 10% fetal bovine serum, 1% penicillin/streptomycin at 37 °C in a humidified 5% CO2 incubator. The cytotoxicity of the peptides was analyzed using WST-8 cell proliferation assay (Biomax Co, Ltd., Seoul, Korea), and the experiment was performed according to the kit protocol. Briefly, cells (1 × 10^4) were seeded in 96-well plate and the peptides treatment (0–100 μM) were initiated at 80% confluency and then for 24 h. After incubation, WST-8 reagent was added and the change in absorbance was read at 450 nm against reagent blank, and values are expressed as percent cell survival."}, "[6]": {"test_system": "CRAB C0 outer membrane", "test": "Outer membrane permeability, NPN uptake", "type": "cell-based, carbapenem-resistant A. baumannii", "protocol": "The effect of peptides on the disturbance of CRAB C0 outer membrane was analyzed using 1-N-phenylnaphthylamine (NPN, Sigma-Aldrich, St. Louis, MO, USA) uptake assay, as previously described. Briefly, CRAB C0 cell suspensions were mixed with NPN (1 mM) and the background fluorescence was recorded for subtraction (excitation λ = 350 nm, emission λ = 420 nm) using RF-6000PC fluorescent spectrophotometer (Shimadzu Scientific Instruments, Kyoto, Japan). Changes in the NPN fluorescence were recorded after addition of different concentrations of peptides and values are expressed as—fluorescence intensity (A.U.)."}, "[7]": {"test_system": "sheep red blood cells (sRBC)", "test": "Hemolytic assay", "type": "cell-based", "conditions": "100 μM", "protocol": "The peptide-induced toxicity was determined by hemolytic against Sheep red blood cells (sRBC). Briefly, Fresh sRBC were washed at least three times with phosphate-buffered saline (PBS) and the debris were removed by centrifugation (1000× g for 5 min, 4 °C). All the peptides including melittin control (0.2–100 μM) and positive control (1% (v/v) triton X-100) were incubated with 4% (v/v) sRBC for 1 h at 37 °C followed by centrifugation at 1000× g for 5 min. The supernatant was measured at 405 nm using a microplate reader."}, "[8]": {"test_system": "A. baumannii", "type": "cell-based, Acinetobacter baumannii", "conditions": "peptide pre-incubated 6 h at 37 °C", "protocol": "as §3"}, "[9]": {"test_system": "CRAB C8", "test": "microbe, parasite or virus in culture", "conditions": "CRAB C8", "from_the_text": "as §1, §2"}, "[10]": {"test_system": "CRAB C1", "test": "microbe, parasite or virus in culture", "conditions": "CRAB C1", "from_the_text": "as §1, §2"}, "[11]": {"test_system": "K. pneumoniae", "test": "microbe, parasite or virus in culture", "conditions": "K. pneumoniae; 16 h, MH media", "from_the_text": "as §1, §2"}}, "note": "Where two headings read alike, the source gives them in different places. Where a SMILES comes first, the peptide text is derived from it. [ ]: non-standard residue; d: D form."}
{"smiles": "CC[C@@H](C)[C@@H](NC(=O)[C@@H](Cc1c[nH]c2ccccc12)NC(=O)[C@@H](CCCNC(=N)N)NC(=O)[C@H](N)CCCNC(=N)N)C(=O)N[C@H](C)C(=O)N[C@H](CC(C)C)C(=O)N[C@H](Cc1c[nH]c2ccccc12)C(=O)N[C@H](CC(C)C)C(=O)N[C@H](CCCNC(=N)N)C(N)=O", "note": "[R-Pro9-3D, rrwialwlr-NH2] (H-[dR][dR][dW][dI][dA][dL][dW][dL][dR]-NH2)", "values": [{"measurement": "MIC", "setting": "[1]", "result": 8, "unit": "µM"}, {"measurement": "MIC", "setting": "[2]", "result": 8, "unit": "µM"}, {"measurement": "Minimal Inhibitory Concentration (MIC)", "setting": "[3]; CRAB C0 + Trypsin", "result": 4, "unit": "µM"}, {"measurement": "Minimal Inhibitory Concentration (MIC)", "setting": "[3]; CRAB C0 + α-Chymotrypsin", "result": 4, "unit": "µM"}, {"measurement": "MIC", "setting": "[4]", "result": 8, "unit": "µM"}, {"measurement": "Toxicity in RAW 264.7 cells", "setting": "[5]", "result": 20.3, "unit": "%"}, {"measurement": "NPN uptake (outer membrane permeabilization)", "setting": "[6]", "result": "greater NPN uptake than their L-form peptides"}, {"measurement": "Hemolytic activity", "setting": "[7]", "result": 1.2, "unit": "%"}, {"measurement": "Minimal Inhibitory Concentration (MIC)", "setting": "[8]; A. baumannii + Trypsin", "result": 4, "unit": "µM"}, {"measurement": "Minimal Inhibitory Concentration (MIC)", "setting": "[8]; A. baumannii + α-Chymotrypsin", "result": 4, "unit": "µM"}, {"measurement": "Minimal Inhibitory Concentration (MIC)", "setting": "[9]", "result": 4, "unit": "µM"}, {"measurement": "Minimal Inhibitory Concentration (MIC)", "setting": "[10]", "result": 8, "unit": "µM"}, {"measurement": "Minimal Inhibitory Concentration (MIC)", "setting": "[11]", "result": 8, "unit": "µM"}]}
